Laboratory results reported in EP4647428A1, “COMPOUND CONTAINING 2-METHYL-2-(3-(PIPERIDIN-3-YL)PHENOXY)-2-METHYLPROPANAMIDE SKELETON” (Jiangsu Mingsheng Jutai Biotechnology Co. Ltd, priority 2023, dated 2024).

Legend:
β-catenin = biological target: T1, β-catenin (Homo sapiens, UniProt P35222); experiment: SRP test (Biacore T200, affinity fitting KD to coupled ligand β-catenin); assay type: binding; conditions: Biacore T200, CM5 chip, 25°C, HEPES pH 7.4
T1 sequence (P35222 1-781): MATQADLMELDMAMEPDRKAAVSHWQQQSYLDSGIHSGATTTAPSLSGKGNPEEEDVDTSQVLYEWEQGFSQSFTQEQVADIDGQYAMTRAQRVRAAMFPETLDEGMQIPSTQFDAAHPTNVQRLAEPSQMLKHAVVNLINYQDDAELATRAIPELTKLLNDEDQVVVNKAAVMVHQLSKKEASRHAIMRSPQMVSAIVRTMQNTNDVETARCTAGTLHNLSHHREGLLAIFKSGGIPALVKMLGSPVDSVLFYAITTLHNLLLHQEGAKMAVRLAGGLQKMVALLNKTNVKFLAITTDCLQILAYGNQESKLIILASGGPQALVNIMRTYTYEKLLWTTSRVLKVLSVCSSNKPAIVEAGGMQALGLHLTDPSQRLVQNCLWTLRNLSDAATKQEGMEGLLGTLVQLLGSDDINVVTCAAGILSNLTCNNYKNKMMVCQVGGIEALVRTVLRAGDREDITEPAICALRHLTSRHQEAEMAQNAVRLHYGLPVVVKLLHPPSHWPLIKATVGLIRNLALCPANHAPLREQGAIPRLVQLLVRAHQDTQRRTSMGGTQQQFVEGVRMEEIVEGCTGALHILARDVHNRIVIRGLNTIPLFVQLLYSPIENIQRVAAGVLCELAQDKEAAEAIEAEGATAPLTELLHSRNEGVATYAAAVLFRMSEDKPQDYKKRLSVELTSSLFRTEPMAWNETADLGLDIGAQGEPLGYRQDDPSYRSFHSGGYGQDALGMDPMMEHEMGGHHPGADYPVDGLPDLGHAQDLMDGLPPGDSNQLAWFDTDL
Experimental: • 1. The analyte is in powder form. • 2. The temperature is 25°C. • 3. The analytical equipment used was Biacore T200 instrument.
• 1. Ligand β-catenin was diluted with HEPES (pH 7.4) to 0.5 mg/mL • 2. The analyte was dissolved in DMSO and diluted with 0.1% DMSO HEPES (pH 7.4)
3. Experimental Procedure
• 1. Start the Biacore T200 instrument according to standard operating procedures. • 2. Prepare 500 ml of HEPES buffer (pH 7.4) and deionized water (filtered through a 0.22 µm membrane) for rinsing the injection needle. • 3. Start installing the chip and install the CM5 chip according to the standard process. • 4. Prepare to start the formal experiment. The buffer solution will flush the flow system inside the entire system at a high flow rate. • 5. Choose the appropriate procedure based on the sample size. • 6. Start the capture chip. Prepare a sufficient volume of ligand β-catenin, EDC/NHS, and blocking buffer. Initiate the coupling procedure with a 7-minute coupling time and a flow rate of 10 µl/min. The final ligand coupling volume is approximately 16,000 RU. • 7. After the coupling is completed, start the sample detection and set the analyte binding time to 120 s. • The flow rate was 30 µL/min; the dissociation time was 200 s, the flow rate was 30 µL/min; the regeneration time was 30 s, • The flow rate was 30 µL/min. • 8. […]

SW480 = experiment: CCK8 cell inhibition test on SW480 cells; assay type: cell-based; conditions: Homo sapiens; CCK-8, SW480 cells, 24 hours incubation at 37°C, compound 20 µM to 0.15625 µM in DMEM (2% FBS)
Experimental: Cells were digested, counted, and plated in a 96-well plate (flat-bottomed, transparent) with 10,000 cells/100 µl DMEM (10% FBS) per well . • 2. Observe the cell status on the next day and start adding drugs after the cells have fully adhered to the wall; • 3. Dilute the compound in DMEM (2% FBS) in a serial dilution format to concentrations of 20 µM, 10 µM, 5 µM, 2.5 µM, 1.25 µM, 0.625 µM, 0.3125 µM, 0.15625 µM, and 0 µM (with equal volume of DMSO). • 4. Add 100 µl of the above compounds at different concentrations to each well. Repeat for each concentration gradient in duplicate. Leave three blank wells (add only DMEM 2% FBS culture medium without cells) . • 5. Incubate at 37°C for 24 hours . • 6. Add 10 µl of CCK-8 Enhanced Solution to each well. Since the amount of CCK-8 added to each well is relatively small, there may be errors due to the reagent sticking to the well wall. It is recommended to gently tap the culture plate after adding the reagent to help mix it. • 7. Incubate in the incubator for 0.5-4 hours: The amount of formazan formed varies depending on the cell type. In most cases, incubation for 1 hour is sufficient. If color development is insufficient, continue incubation to confirm optimal conditions. • 8. Measure the absorbance at 450nm and 600nm (excluding interference from the reagent background color and the absorbance of the well plate itself); • 9. The final absorbance value is OD450nm-OD600nm, and the inhibition rate is calculated; Inhibition rate = [(Ac−As)/(Ac−Ab)] × 100% [formula] • As: absorbance of the experimental well (culture medium containing cells, CCK-8, and drug to be tested); • Ac: absorbance of control wells (culture medium containing cells, CCK-8, and no test drug); • Ab: absorbance of blank wells (culture medium without cells, test drugs, or CCK-8).

## CC(C)c1ccc(-c2cccc(S(=O)(=O)N3CCCC(c4cccc(OC(C)(C)C(=O)NCC(=O)N5CCC[C@H]5CN)c4)C3)c2)cc1 (stereo partly shown) [Compound 115-010]
β-catenin
  Kd: 284 nM
SW480
  IC50: 3560 nM

## CC(C)c1ccc(-c2cccc(S(=O)(=O)N3CCCC(c4cccc(OC(C)(C)C(=O)NCC(=O)N5CC[C@@H](CN)C5)c4)C3)c2)cc1 (stereo partly shown) [Compound 115-012]
β-catenin
  Kd: 760 nM
SW480
  IC50: < 2970 nM
